In patent publication US3953501A, “Triiodoisophthalic acid monoamino acid amides” (Schering Aktiengesellschaft, priority 1972, dated 1976):
Several values for one entry are separate records, joined by “and”; a condition that tells them apart may be missing. Equal entries are not always repeated.

Tests used:
Format in all cases: in vivo
rats [1] = test: Intracerebral compatibility according to Valzelli; settings: methylglucamine salts, 200 mg. I/ml., dose evoking neurological symptoms (including convulsions and death) in 50% of animals, (1) = Iotalamat (H), (2) = compound
Procedure: (§1) All substances were tested as methylglucamine salts with 200 mg. I/ml. of solution. The intracerebral compatibility was determined on rats in accordance with Valzelli, Med. Exp. 11: 23-26 (1964).
(§2) As a measure of physiological compatibility, the ED50 was determined in each case, i.e., the dose at which an undesired array of neurological symptoms (including convulsions and death) is evoked in 50% of the animals.

rats [2] = test: Cisternal compatibility (injection into suboccipital cisterna); settings: 0.008 - 0.200 ml./kg., methylglucamine salts, 200 mg. I/ml., neurological symptoms in 50% of animals, (1) = Iotalamat (H), (2) = compound
Procedure: as §1
In order to determine the cisternal compatibility, the test compounds were injected in varying doses (0.008 - 0.200 ml./kg.) by means of a Hamilton No. 710 syringe directly into the suboccipital cisterna of rats which were under a slight ether narcosis.
as §2

rats [3] = test: Cerebral compatibility (injection into left common carotid artery); settings: 14.0 - 26.0 ml./kg., methylglucamine salts, 200 mg. I/ml., neurological symptoms in 50% of animals, (1) = Iotalamat (H), (2) = compound
Procedure: as §1
Cerebral compatibility was likewise determined on rats. In an operation under a slight ether narcosis, a catheter was affixed in the left common carotid artery; the distal end of the catheter, after having been passed through the lateral connective tissue of the neck, was fixed in the center of the back. Three hours later, the test compounds were cranially injected in varying doses (14.0 - 26.0 ml./kg.) into the artery.
as §2

Compound | ED50 intracerebral compatibility according to Valzelli (myelography) (rats [1]) | ED50 cisternal compatibility (myelography) (rats [2]) | ED50 cerebral compatibility (angiography) (rats [3])
CC(=O)Nc1c(I)c(C(N)=O)c(I)c(C(=O)NCC(=O)O)c1I [E, N-(3-Aminocarbonyl-5-acetamido-2,4,6-triiodobenzoyl)-glycine] | 69.84 mg. I/kg. | 14.42 mg. I/kg. | 
CNC(=O)CNC(=O)c1c(I)c(NC(=O)CO)c(I)c(C(=O)O)c1I [G, N-(3-Carboxy-5-hydroxyacetamido-2,4,6-triiodobenzoyl)-glycine Methylamide] | 62.62 mg. I/kg. | 11.8 mg. I/kg. | 3.55 g I/kg
CNC(=O)c1c(I)c(NC(C)=O)c(I)c(C(=O)O)c1I [H, 3-acetamido-5-methylcarbamoyl-2,4,6-triiodobenzoic acid, reference compound] | 59.83 mg. I/kg. and 56.59 mg. I/kg. and 60.86 mg. I/kg. and 61.92 mg. I/kg. and 61.28 mg. I/kg. | 10.56 mg. I/kg. and 11.8 mg. I/kg. and 9.8 mg. I/kg. and 10.9 mg. I/kg. and 10.07 mg. I/kg. and 10.30 mg. I/kg. | 
CC(=O)Nc1c(I)c(C(=O)O)c(I)c(C(=O)NCC(N)=O)c1I [A, N-(3-Carboxy-5-acetamido-2,4,6-triiodobenzoyl)-glycine Amide] | 70.72 mg. I/kg. | 11.17 mg. I/kg. | 
CNC(=O)CNC(=O)c1c(I)c(NC(=O)COC)c(I)c(C(=O)O)c1I [C, N-(3-Carboxy-5-methoxyacetamido-2,4,6-triiodobenzoyl)-glycine Methylamide] | 53.97 mg. I/kg. | 20.04 mg. I/kg. | 
CNC(=O)c1c(I)c(NC(C)=O)c(I)c(C(=O)N(C)CC(=O)O)c1I [D, N-(3-Methylaminocarbonyl-5-acetamido-2,4,6-triiodobenzoyl)-sarcosine] | 76.21 mg. I/kg. | 11.93 mg. I/kg. | 3.99 g I/kg
CNC(=O)C(CO)NC(=O)c1c(I)c(NC(=O)COC)c(I)c(C(=O)O)c1I (racemic) [F, N-(3-Carboxy-5-methoxyacetamido-2,4,6-triiodobenzoyl)-DL-serine Methylamide] | 81.32 mg. I/kg. | 22.8 mg. I/kg. | 3.78 g I/kg
CNC(=O)C(C)NC(=O)c1c(I)c(NC(C)=O)c(I)c(C(=O)O)c1I (racemic) [B, N-(3-Carboxy-5-acetamido-2,4,6-triiodobenzoyl)-DL-alanine Methylamide] | 66.30 mg. I/kg. | 16.7 mg. I/kg. | 
